Results from PubChem BioAssay AID1259335.

System: C. elegans L1 growth, INVAPP imaging, 5 days
Assay: C. elegans growth inhibition, confirmation, whole organism (AID 1259335)

| SMILES | EC50 [µM] |
| --- | --- |
| CCc1nn(C)c(C(=O)NCc2ccc(Oc3ccc(C)cc3)cc2)c1Cl | 0.2 |
| Cc1cc(C(=O)Nc2ccc(-c3ccccc3)cc2)no1 | 2.5 |
| O=C(Nc1ccc2c(c1)B(O)OC2)c1ccccc1C(F)(F)F | 4.3 |
| Nc1ccc(C(=O)Nc2ccc(-c3nc4ccccc4o3)cc2)cc1 | 6.2 |
| O=C(Nc1ccc(F)c(-c2nc3ncc(-c4ccccc4)cc3[nH]2)c1)N1CCCC1 | 3.3 |
| COC(=O)Nc1nc2ccc(C(=O)c3ccccc3)cc2[nH]1 | 1.1 |
| COC(=O)C1=C(C)NC(C)=C(C(=O)OC(C)C)[C@H]1c1cccc2nonc12 | 1.6 |
